Data as given in PubChem BioAssay AID179 (DTP/NCI, 2004).
Several values for one entry are separate records, joined by “and”; a condition that tells them apart may be missing. Equal entries are not always repeated. Activity calls are given as the source filed them.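 The calls were made as follows: active = compounds giving half or more protection of infected cells from virus-caused growth loss, again on retest; inactive = the rest.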

System: CEM cells HIV-1 protection, formazan growth assay
Assay: NCI AIDS Antiviral Assay
Settings: for IC50: measured here: growth of uninfected CEM cells
In short: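 Human CEM cells, uninfected and HIV-1-infected, exposed to five drug concentrations; growth measured by soluble formazan assay and scored as percent protection from infection, with protecting compounds retested.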

Structure (SMILES) | EC50 | IC50 | outcome
O=c1cc(-c2ccccc2)oc2c(-c3cc(Cl)cc4c(=O)cc(-c5ccccc5)oc34)cc(Cl)cc12 | > 200 µM | 38.9 µM | –
NC(=O)NCCSC1(SCCNC(N)=O)CCCCC1 | > 200 µM | > 200 µM | –
CC(=O)OC1CCCn2c1nc1c2C(=O)C(C)=C(N2CC2)C1=O (stereo not drawn) | – | – | inactive
CC(=O)[O-].O=C([N-]/N=C\c1ccoc1)c1ccncc1.[Ni+2].[OH3+].[OH3+].c1ccncc1 | > 200 µM | > 200 µM | –
COc1nc(C)nc2sc3c(c12)CCCC3 | > 100 µM | > 100 µM | –
Cc1nc(N)sc1C(=O)Nc1ncn[nH]1 | > 200 µM | 117 µM | –
O=C1c2ccccc2C(=O)c2sc(Nc3ccc([N+](=O)[O-])cc3)nc21 | > 10.7 µM | > 10.7 µM | –
O=C(O)c1cc2ccc(O)c(O)c2cn1 | > 56.2 µM | 2.04 µM | –
COc1cc(N)c2c(c1)SCCC(=O)N2 | > 200 µM | > 200 µM | –
COc1cc(OC)c(C2c3cc4c(cc3OC(N3CCOCC3)C2C)OCO4)c(OC)c1 (stereo not drawn) | > 200 µM | 11.2 µM | –
COc1cc2c(cc1OC)C1CC(OC(=O)c3ccccc3)(c3nccc4cc(OC)c(OC)cc34)CCN1CC2 (stereo not drawn) | – | – | inactive
CC(=N\N=C\c1ccccn1)/C(C)=N/N=C(C)/C(C)=N/N=C(C)/C(C)=N/N=C/c1ccccn1 | – | – | inactive
COC(=O)C1N=CSCC1(C)O (stereo not drawn) | > 1320 µM | 186 µM | –
C=CC(C)(C)c1cccc2[nH]c3c(c12)CC1CCC2(O)C4=CC(=O)C5OC4(CCC2(C)[C@@]31C)OC5(C)C (stereo partly drawn) | – | – | inactive
CCCCCCCCCCCCCCCC(=O)NC(Cc1c[nH]c2ccccc12)C(=O)O (stereo not drawn) | > 200 µM | 50.1 µM | –
CCOC(=O)c1c(NS(=O)(=O)c2ccc(C)cc2)sc(C)c1-c1ccccc1 | > 200 µM | 21.9 µM | –
CC#N.CC#N.COC(=O)[C@@H]1CCC(=O)[N-]1.COC(=O)[C@@H]1CCC(=O)[N-]1.COC(=O)[C@@H]1CCC(=O)[N-]1.COC(=O)[C@@H]1CCC(=O)[N-]1.[Rh+2].[Rh+2] | > 200 µM | > 200 µM | –
N#Cc1c(N=C/C=C/c2ccccc2)c(C(=O)Nc2ccccc2)n2c1CCCC2 | > 200 µM | > 200 µM | –
Cc1ccnc2c1C(=O)C1=C(OC(C)(C)CC1O)C2=O (stereo not drawn) | > 200 µM | 10.7 µM | –
O=C(Nc1ccccc1)n1cc(-c2ccccn2)c(N2CCOCC2)n1 | > 195 µM | 53.7 µM | –
CCCCC(CC)CO[Si](OCC(CC)CCCC)(OCC(CC)CCCC)OCC(CC)CCCC (stereo not drawn) | – | – | inactive
C[C@H]1C=C2[C@@H]3CC(C)(C(=O)O)CC[C@]3(C)CC[C@]2(C)[C@]2(C)CC[C@H]3C(C)(C)[C@@H](OC(=O)c4cccc5c(=O)c6ccccc6[nH]c45)CC[C@]3(C)[C@@H]12 (stereo partly drawn) | > 100 µM | 35.5 µM | –

Structure (SMILES) | EC50 | IC50 | outcome
O=C(O)c1cc(/C=C/c2ccc(N=Nc3c(O)cc(O)cc3C(=O)O)c(C(=O)O)c2)ccc1N=Nc1c(O)cc(O)cc1C(=O)O | 16.6 µM and 3.89 µM | > 100 µM and 95.5 µM | –
CSC1=Nc2ccccc2N(C)c2c1c(-c1ccccc1)nn2C | > 200 µM | 43.7 µM | –
CC1CSc2nc3[nH]c(=S)[nH]c3c(=O)n2C1 (stereo not drawn) | > 200 µM | > 200 µM | –
CC1=NN(C(=O)Cc2ccccc2)C(=O)/C1=C\C=C\c1ccccc1 | > 57.5 µM | > 57.5 µM | –
O=[N+]([O-])c1ccc(C2CC(c3ccccc3Cl)=Nc3ccccc3S2=O)cc1 (stereo not drawn) | > 4.9 µM | > 4.9 µM | –
CCCCN(CCCC)CC(C(=O)Nc1ccccc1)/C(C)=N\NC(=O)c1ccncc1 (stereo not drawn) | > 51.3 µM | 30.2 µM | –
Nc1nc(Cl)cc(OCC2(CO)CCCC2)n1 | > 200 µM | 110 µM | –
C=C(Br)CNC(=O)NCCN1CCOCC1 | > 200 µM | > 200 µM | –
COC(=O)C(CC=O)C(=O)C(=O)Nc1cccc(C(F)(F)F)c1 (stereo not drawn) | > 282 µM | > 282 µM | –
c1cc(C[S+]2CCCC2)sc1C[S+]1CCCC1 | – | – | inactive
COC(=O)c1ccc(NCc2cc(O)ccc2O)cc1O | > 200 µM | 10.5 µM | –
C/C(=N\N(C)C)C(CN(C)C)C(c1ccccc1)c1c(O)c2ccccc2oc1=O (stereo not drawn) | > 100 µM | 91.2 µM | –
CC(C)CC(NC=O)C(=O)NC(Cc1ccccc1)NC(=O)CNC(=O)C(C)NC(=O)C(N)Cc1ccc(O)cc1 (stereo not drawn) | 141 µM | 151 µM | –
CCCC1C(=O)N2C(N(C)C)=Nc3ccc(C)cc3N2C1=O (stereo not drawn) | > 832 µM | 457 µM | –
O=c1[nH]c(=O)n(C2CC(F)C(CO)O2)cc1C(OCC(F)(F)F)OCC(F)(F)F (stereo not drawn) | 37.2 µM | 195 µM | –
COc1ccc(/S(C)=N/S(=O)(=O)c2ccc(C)cc2)cc1 (stereo not drawn) | > 288 µM | 263 µM | –
C=CC(=O)N1CN(C(=O)C=C)CN(C(=O)C=C)C1 | > 200 µM | 1.15 µM | –
NNC1=N/C(=C\c2ccco2)C(=O)N1 | > 200 µM | 162 µM | –
COC(=O)c1c2c(cc3c1CC1(Cc4ccccc4C1=O)C3)CCC2 (stereo not drawn) | > 200 µM | 13.5 µM | –
O=C1c2ccccc2N2OC3(N4CCCC4)CCCC3C12c1ccccc1 (stereo not drawn) | > 38 µM | > 38 µM | –
Cc1ccc(OCC(=O)N2N=C(c3ccccc3)CC2(O)c2ccccc2)cc1 (stereo not drawn) | > 25.7 µM | > 25.7 µM | –
COc1c(OC)c(C=O)c2c(OC)c(-c3c(C)cc4c(C(C)C)c(OC)c(OC)c(C=O)c4c3OC)c(C)cc2c1C(C)C | – | – | inactive

Structure (SMILES) | EC50 | IC50 | outcome
COC1/C=C/OC2(C)Oc3c(C)c(O)c4c(O)c(c(/C=N/NC5OC(COC(=O)c6ccccc6)C(OC(=O)c6ccccc6)C5OC(=O)c5ccccc5)c(O)c4c3C2=O)NC(=O)C(C)=C/C=C/C(C)C(O)C(C)C(O)C(C)C(OC(C)=O)C1C (stereo not drawn) | > 200 µM | 14.5 µM | –
C[S+](C)CCOC(=O)C(=[N+]=[N-])c1ccc([N+](=O)[O-])cc1 | – | – | inactive
Cc1ccc2c(c1)C(=O)/C(=C\c1ccc(Cl)cc1)CCS2(=O)=O | > 200 µM | 1.66 µM | –
O=C1C[C@@H]2OC3=C(C(=O)CCC3)[C@@H]2O1 | > 1290 µM | 7.24 µM | –
CCOC(=O)CC(=O)Nc1cccc2[nH]cnc12 | > 200 µM | > 200 µM | –
Cc1c2ccccc2nc(CSc2nc3ccccc3s2)[n+]1[O-] | 64.6 µM | > 200 µM | –
N#C/C(=C\c1ccc2ccccc2c1)c1ccccc1 | > 14.8 µM | > 14.8 µM | –
CCCCCOC(=O)c1cccc(NC(=O)CN(CC)CC)c1 | > 200 µM | 95.5 µM | –
O=C1NC2(CCCC2)C2CCCCC12O (stereo not drawn) | – | – | inactive
CCCCCCCCCCCCCCC(C(=O)O)C(=O)O | > 832 µM | 398 µM | –
Clc1cccc2nncc(N3CC3)c12 | – | – | inactive
COC(=O)C(/C(=N/NC(=O)c1ccncc1)C(=O)Nc1ccccc1OC)c1nc2ccc(Cl)cc2[nH]c1=O (stereo not drawn) | > 91.2 µM | > 91.2 µM | –
N#C/C(C(=S)Nc1ccc(Cl)cc1)=C1/Nc2ccccc2O1 | > 200 µM | 37.2 µM | –
Cc1ncc(CCl)c2c1OC(C)(C)OC2 | > 676 µM | 7.94 µM | –
NC(=O)N/N=C1\CCCc2ccccc21 | > 178 µM | > 178 µM | –
CCOC(=O)c1ccc(NCc2ccc3oc(=O)c(-c4ccccc4)nc3c2)cc1 | > 135 µM | 38.9 µM | –
Cc1ccc(C(=O)CC2=Nc3nnc(CCCCCCCc4nnc5n4C(=O)C(CC(=O)c4ccc(C)cc4)=N5)n3C2=O)cc1 | > 2.4 µM | > 2.4 µM | –
OC1c2ccccc2C2C(O)c3ccccc3C12 (stereo not drawn) | – | – | inactive
Cc1nc2c(Br)cc(Br)cc2c(=O)n1-c1ccccc1NC1OCC(O)C(O)C1O (stereo not drawn) | > 200 µM | – | –
CN(C)C(=S)SSC(C)(C)C | > 200 µM | 8.32 µM | –
Cc1ccc(-c2n[nH]c(Cc3nc(-c4ccc(C)cc4)n[nH]3)n2)cc1 | > 200 µM | > 200 µM | –
CN(C)CCNc1c([N+](=O)[O-])sc2ccc(Cl)cc12 | > 200 µM | 16.6 µM | –

Structure (SMILES) | EC50 | IC50 | outcome
COC12OCCN(C)C1=CC(=O)C1(C)N=NCC12 (stereo not drawn) | – | – | inactive
CC12C(C(=O)O)C(=O)C(C(=O)O)C1(C)C(C(=O)O)C(=O)C2C(=O)O (stereo not drawn) | > 525 µM | 398 µM | –
CN(C)c1ccc(/C=N/N(Cc2ccccc2)c2ccccc2)cc1 | > 6.03 µM | > 6.03 µM | –
COc1ccc(CCNC(=O)CCCCCO)cc1OC | > 200 µM | 195 µM | –
O=C(Nc1ccc(Cl)cc1Cl)C(=O)C(C(=O)c1ccc2ccccc2c1)C1OC(=O)c2ccccc21 (stereo not drawn) | > 50.1 µM | 25.7 µM | –
CCOC(=O)Cc1ccc(Nc2nc3ccccc3nc2C(=O)OCC)cc1 | 91.2 µM | > 200 µM | –
CSCCCNC(=O)c1csc([C@@H](CSC)NC(=O)CCNC(=O)[C@@H](NC(=O)OCC(Br)(Br)Br)C(C)O)n1 (stereo partly drawn) | > 166 µM | > 166 µM | –
Cc1ccc2[nH]c(=O)c(-c3cnc(=O)[nH]n3)c(O)c2c1 | 3.02 µM | 15.1 µM | –
C[C@H](N[C@H]1CCC[C@]1(O)C#Cc1ccc2c(c1)OCO2)c1ccccc1 | > 50.1 µM | 28.8 µM | –
NC1=NC2=C(CCCC2)C(c2cccs2)S1 (stereo not drawn) | > 145 µM | > 145 µM | –
O=[N+]([O-])c1cc(/C=N\NS(=O)(=O)c2ccc(Cl)cc2)c(O)c([N+](=O)[O-])c1 | > 617 µM | 34.7 µM | –
COC1OC(CO)C(O)C2NCSC12 (stereo not drawn) | 33.9 µM | > 200 µM | –
O=S(=O)(SC1=NCCN1)c1ccccc1 | 105 µM | 302 µM | –
COC1(OC)C2(Cl)C(Cl)=C(Cl)C1(Cl)C1C(=O)C=CC(=O)C12 (stereo not drawn) | > 60.3 µM | 25.1 µM | –
COc1cc2c(cc1OC)C(Cc1ccc(Oc3cc(CC4c5cc(OC)c(OC)cc5CCN4C)ccc3O)cc1)N(C)CC2 (stereo not drawn) | – | – | inactive
CC(=O)c1c(O)cc2c(c1O)C1CC(C)(CCC1=C(C)C)O2 (stereo not drawn) | > 186 µM | 26.3 µM | –
COC1OCC(N)C(O)C1O (stereo not drawn) | – | – | inactive
Nc1nc(O)c(N=O)c(=O)[nH]1 | > 200 µM | > 200 µM | –
CC(C)=NNC(=S)NC12CC3CC(CC(C3)C1)C2 | – | – | inactive
CCc1c(Cc2ccccc2)n(COCCSc2ccccc2)c(=O)[nH]c1=O | 3.24 µM | 26.9 µM | –
CCOC(=O)/C(I)=C/c1cc(OC)c(OC)c(OC)c1 | > 141 µM | 85.1 µM | –
